US9512138B2, “Compositions and methods for treating cancer” (The Regents of the University of California, priority 2012, dated 2016)
Entries after “also recorded” stand apart in the source; their conditions may differ. Structures can show the parent of a compound that is named as a salt.

Experiments:
[1] = tested on: NF-κB/p65 phosphorylation; experiment: Western blot of phospho-NF-κB/p65 in H23 cells; format: cell-based, human; settings: for phosphorylation of the p65 subunit of NF-κB: 10 μM, 60 min (FIG. 7); for phosphorylation of NF-κB/p65: 10 µM, 60 min (FIG. 13)
Procedure: FIG. 7. […] After 60 min Western blot were performed using anti-phospho-NF-κB/p65 antibody (Cell Signaling Technology #3031). Membranes were stripped and re-probed with antibody against total NF-κB/p65 (CST #3037).
After 60 min, Western blots were done using anti-phospho-NFκB/p65 antibody (Cell Signaling).
Upon confirming that parthenolide analogues can inhibit NSCLC cell proliferation, induce cell death and enhance the cytotoxicity of chemotherapy, we began to investigate potential cellular mechanisms that may underlie this process. For example, we used Western Blot methods to determine phosphorylation of the p65 subunit of NF-κB. H23 cells were incubated in the presence of vehicle control or 10 μM concentration of the parthenolide derivatives (JD 201, 202, 203, 204) for 60 min. After treatment, cells were collected and homogenized in lysis buffer. Extracts were electrophoresed on 4-20% gradient SDS-PAGE gels and transferred to nitrocellulose membranes. Blots were probed with anti-phospho-NF-κB/p65 and NF-κB/p65 for a loading control.

[2] = tested on: A549, H23, H2122 and H1975 NSCLC cells; experiment: MTS cell viability/proliferation assay in NSCLC cell lines, 72 h; format: cell-based, human; settings: for growth inhibition at 10 μM / growth inhibition at 100 μM: A549, H23, H2122, H1975; for inhibitory activity relative to other analogues: FIG. 5, 0.1-100 μM
Procedure: FIG. 5. Parthenolide analogues JD201-JD210 suppress human lung tumor cell proliferation in vitro. A549, H23, H2122 and H1975 NSCLC cells were treated with increasing concentrations of drugs (0.1-100 μM). After 72 h cell viability was assessed by MTS assay. Viable cells are expressed as percentage of vehicle control. P<0.01 (**), versus control group, P<0.05 (*), versus control group. Natural occurring parthenolide (PTL), parthenolide analogues JD201 (DMAPT)-JD210. Parthenolide analogues inhibit female (H1975, H2122) and male (H23, A549) NSCLC cell proliferation.
To determine the effect of parthenolide analogues in lung cancer cell proliferation we tested two male (A549, H23) and two female (H2122, H1975) lung cancer cell lines with increasing concentrations of parthenolide analogues (0.1, 1, 10 and 100 μM) for 72 hours.

SKBR3/TZR cells = experiment: Proliferation of trastuzumab-resistant SKBR3/TZR cells; format: cell-based, human; design: dose or concentration left out as unconfirmed; settings: 0.1 to 50 micromolar alone or with trastuzumab, 72 hours
Procedure: Assays for Tumor Cell Proliferation. […] Cell counts and viability tests (Trypan blue) will be done every 24 hr for […]. After 48-72 hr, proliferation was assessed by cell counts.
The human breast cancer cell line SKBR3 (ATCC) was obtained from the American Type Culture Collection (ATCC). Unless otherwise stated, monolayer cultures of SKBR3 were maintained in Dulbeccos' Modified Eagle's Media (DMEM):F12 medium with 10% FBS.

[3] = tested on: angiomyolipoma (AML) cells; experiment: Proliferation of angiomyolipoma (AML) cells; format: cell-based; settings: 72 hours, IIA medium with 1% FBS, cell counts
Procedure: (§1) FIG. 19. […] Cells were counted and plated and then treated with parthenolide analogue JD203 or control for 72 hours using IIA medium with 1% FBS. At the end of the experiments, cell proliferation was quantitated based on cell counts. Experimental results (n=3) shown as % control (mean±SE).
(§2) We have tested inhibitory activity of parthenolide analogues using cell models for TSC-related proliferative disease. The ELT3 cells are a TSC2-null smooth muscle-derived cell line from a rat uterine leiomyoma and often used as a model for lymphangioleiomyomatosis (LAM) and other TSC-related proliferative diseases (75,76). Angiomyolipoma cells (AML) that have inactivating mutations in both alleles of the TSC2 gene were also used as an alternate cell model (77,78). Cells were routinely cultured in IIA complete medium (50% DMEM, 50% F-12, […] NaHCO3, […] FeSO4, 50 nM sodium selenite, […] insulin, 200 nM hydrocortisone, […] transferrin, 1 nM triiodothyronine, 10 mU/ml vasopressin, 10 nM cholesterol, 10 ng/ml epidermal growth factor) containing 15% FBS. For study of proliferation, cells were incubated for 3 days in IIA medium containing 1% FBS. Results of these experiments indicate that parthenolides may also have utility in the treatment of TSC-related proliferative diseases that are not classified as malignancies.

ELT3 cells = experiment: Proliferation of ELT3 cells (TSC-related disease model); format: cell-based, rat; settings: 72 hours, IIA medium with 1% FBS, cell counts
Procedure: as §1, §2

MCF-7/HER2 cells = experiment: Proliferation of tamoxifen-resistant MCF-7/HER2 cells (cell counts); settings: 72 hours; for proliferation of MCF-7/HER2 cells: 0.1-50 micromolar, cell counts, P<0.001 vs controls
Procedure: Assays for Tumor Cell Proliferation. […] Cell counts and viability tests (Trypan blue) will be done every 24 hr for 2-33 days. After 48-72 hr, proliferation was assessed by cell counts.

Aqueous solubility = format: physicochemical
cancer cells = experiment: Structure-activity study of antitumor activity; settings: compared to other known parthenolide derivatives such as DMAPT
Excerpt: We have developed a set of novel analogues of parthenolide which have both improved aqueous solubility and antitumor properties. An extensive structure-activity study was done to investigate parthenolide and its analogues. […] These water-soluble compounds, for example analog JD206, may be conjugated to sugars or peptides that may be selectively targeted to cancer cells, particularly cancer stem cells.

[4] = tested on: MCF-7/TAMR breast cancer cells; experiment: Proliferation of tamoxifen-resistant MCF-7/TMR (TAM-R) cells; format: cell-based, human; settings: analogue at varying doses plus tamoxifen 1×10^-7 M, 48 hours; P<0.01
Procedure: MCF-7/CON cells are tamoxifen-sensitive, while MCF-7/HER2 and MCF-7/TMR cells are known to be tamoxifen-resistant (28,61,66,67). Except for TMR (64,68), cells were routinely cultured in RPMI 1640 media with 10% heat-inactivated FBS (28,64,66). For E2-free conditions, media were changed 48 h before studies to phenol-red free RPMI 1640 with 1% dextran-coated, charcoal-treated (DCC) FBS. TMR cells were derived by long-term continuous exposure of cells to 10^−7 M 4-hydroxy-tamoxifen by established methods (64,68) and were maintained with 10^−7 M 4-hydroxytamoxifen in medium. Levels of ERα and HER2 expression in these several cell lines were determined by use of Western blot methods.
Assays for Tumor Cell Proliferation. Breast tumor cells were be grown in RPMI 1640 media with 10% heat-inactivated FBS (except for TMR and TZR cells as noted above). For estrogen-free conditions, medium were changed 48 h before studies to phenol-red free RPMI 1640 with 1% dextran-coated, charcoal-treated (DCC) FBS, then treated with selected reagents. Cell counts and viability tests (Trypan blue) will be done every 24 hr for […]. After 48-72 hr, proliferation was assessed by cell counts.

[5] = tested on: NF-κB/p65 phosphorylation; experiment: Western blot of cisplatin-mediated phospho-NF-κB/p65 in A549 cells; format: cell-based, human; settings: 5 μM cisplatin and/or 20 μM analog, time course
Procedure: FIG. 9. […] Western blots were then performed using anti-phospho-NF-κB/p65 antibody (Cell Signaling Technology #3036) and anti-phospho-IκBα antibody (CST #2859). Membranes were then stripped and reprobed with antibody against total NF-κB/p65 (CST #3987) and antibody against total IκBα (CST #4814).

A549 NSCLC xenografts = A549 NSCLC xenografts in immunodeficient mice; format: in vivo
[6] = tested on: H157 NSCLC cells (bulk and CSC-subpopulations); experiment: Proliferation of NSCLC bulk cells and CSC subpopulations; format: cell-based, human; settings: bulk cell preparations and CSC-subpopulations; drug dose 20 micromolar; P<0.05 vs control
Excerpt: FIG. 4. […] JD201 drug dose=20 micromolar.
Lung cancer is the leading cause of cancer death in men and women worldwide. The poor prognosis of advanced non-small cell lung cancer (NSCLC) is due, in part, to emergence of tumor resistance to chemotherapy. […] If such minute subsets of CSC drive tumor formation and drug resistance, therapies targeting the bulk tumor mass but not CSC will fail. […] We identified CD133+/ALDH+ tumor stem/progenitor cells from human lung cancer cells in vitro using established Aldefluor assays in combination with labeled anti-CD133 antibodies. […] The antitumor effect of PTL may be due to its action as a potent inhibitor of nuclear factor-KB (NF-κB), which is markedly activated by chemotherapy. To target CSC and suppress tumor progression, we synthesized and tested novel analogs of PTL with improved antitumor properties and aqueous solubility. […] Dose-dependent increments of PTL analogs increase apoptosis of CSC when compared with bulk cells. […] Using Western blots, we find that PTL congeners inhibit phosphorylation of the p65 subunit of phospho-NF-κB and activation of IKKα/β. […]
Analogues of parthenolide were prepared and purified (FIG. 8) and assessed for antitumor efficacy, to develop the best agents for clinical use. […]

[7] = tested on: cancer stem cells (CSC) derived from NSCLC (H157); experiment: Annexin-V apoptosis assay in lung cancer stem cells; format: cell-based, human; settings: compared with bulk NSCLC cells, 3 independent experiments
Procedure: FIG. 3. […] A comparison is performed using bulk NSCLC cells. Results based on annexin-V assays in 3 independent experiments.
Analogues of parthenolide were prepared and purified (FIG. 8) and assessed for antitumor efficacy, to develop the best agents for clinical use. Responses of CSC-like subsets, bulk tumor cells and normal lung epithelial cells to parthenolide (PTL) analogues alone and with chemotherapy are ongoing, with assessments by TUNEL and Annexin-V assay for apoptosis (13) (FIG. 3) and cell proliferation (FIG. 4).

In the case of C/C1=C/CC[C@@]2(C)OC2[C@H]2OC(=O)[C@@H](CN(CCO)CCO)[C@@H]2CC1.O=C(O)/C=C/C(=O)O (stereo partly drawn) [JD203, (1aR,7aS,8R,10aS,Z)-8-((Bis(2-hydroxyethyl)amino)methyl)-1a,5-dimethyl-2,3,6,7,7a,8,10a, 10b-octahydrooxireno[2′,3′:9,10]cyclodeca[1,2-b]furan-9(1aH)-one, fumaric acid salt], the “phosphorylation of the p65 subunit of NF-κB” value [1] was “reduced phosphorylation of the p65 subunit of NF-κB; also recorded: inhibit phosphory-lation of NF-κB/p65”, the “phosphorylation of NF-κB/p65” value [1] was “inhibit phosphorylation of NF-κB/p65” and the “growth inhibition at 10 μM” value [2] was “Significant growth inhibition”. The “growth inhibition at 100 μM” value [2] was “Significant growth inhibition”, the “inhibitory activity relative to other analogues” value [2] was “greater inhibitory activity than compounds 205 and 207” and the “proliferation of SKBR3/TZR cells” value (SKBR3/TZR cells) was “reduces proliferation of SKBRS/TZR cells alone and in combination with trastuzumab”. The “proliferation of angiomyolipoma (AML) cells” value [3] was “inhibits proliferation”, the “proliferation of ELT3 cells” value (ELT3 cells) was “inhibits proliferation” and the “proliferation of MCF-7/HER2 cells” value (MCF-7/HER2 cells) was “dose-dependent (0.1-50 micromolar) reduction in proliferation”. For the same molecule, the “proliferation of MCF-7/HER2 cells, combination with tamoxifen” value (MCF-7/HER2 cells; analogue 0.1 to 50 micromolar with tamoxifen 1×10^-7 M, P<0.01) was “greater reduction in cell proliferation than treatment with the analogue alone”, the “water solubility compared to DMAPT (JD201)” value (Aqueous solubility) was “improved water solubility” and the “anticancer activity compared to DMAPT (JD201)” value (cancer cells) was “strong anticancer activity”. For the same molecule, the “proliferation of MCF-7/TAMR cells, combination with tamoxifen” value [4] was “enhanced blockade of tumor cell proliferation; also recorded: promotes antitumor effects of tamoxifen” and the “cisplatin-mediated phosphorylation of NF-κB/p65” value [5] was “inhibit cisplatin-mediated phosphorylation of NF-κB/p65”.

With C/C1=C\CC[C@@]2(C)O[C@H]2[C@H]2OC(=O)[C@@H](CN(C)C)[C@@H]2CC1 [JD201, (1aR,7aS,8R,10aS,Z)-8-((Dimethylamino)methyl)-1a,5-dimethyl-2,3,6,7,7a,8,10a,10b-octa-hydrooxireno[2′,3′:9,10]cyclodeca[1,2-b]furan-9(1aH)-one, fumaric acid salt, reference compound] the “phosphorylation of the p65 subunit of NF-κB” value ([1]; listed as 201) was “inhibit phosphory-lation of NF-κB/p65”, the “phosphorylation of the p65 subunit of NF-κB” value ([1]; listed as JD 201) was “reduced phosphorylation of the p65 subunit of NF-κB” and the “phosphorylation of NF-κB/p65” value [1] was “inhibit phosphorylation of NF-κB/p65”. The tumor progression (A549 NSCLC xenografts; oral gavage 100 mg/kg/day for 21 days vs vehicle control) was “reduction in tumor progression”, the tumor volumes (A549 NSCLC xenografts; oral gavage 100 mg/kg/day for 21 days, vehicle controls 252±31 mm^3) was 55±5 mm^3 and the “growth inhibition at 10 μM” value [2] was “Significant growth inhibition”. For the same molecule, the “growth inhibition at 100 μM” value [2] was “Significant growth inhibition”, the “inhibitory activity relative to other analogues” value [2] was “greater inhibitory activity than compounds 205 and 207” and the “proliferation of MCF-7/HER2 cells” value (MCF-7/HER2 cells) was “dose-dependent (0.1-50 micromolar) reduction in proliferation”. The “proliferation of NSCLC cells” value [6] was “inhibits proliferation” and the “apoptosis of cancer stem cells (annexin-V)” value [7] was “dose-dependent increments in apoptosis”.
